# Assay results published in patent publication US20240158446A1, “CYCLIC COMPOUND HAVING SELECTIVE INHIBITORY ACTION ON KRAS OVER HRAS AND NRAS” (CHUGAI SEIYAKU KABUSHIKI KAISHA, priority 2021, published 2024).
# Key:
# [1] = target: GDP-bound KRAS wild-type protein (Homo sapiens, UniProt P01116); assay: Binding to KRAS by surface plasmon resonance (SPR), Single Cycle Kinetics; conditions: SPR Single Cycle Kinetics, GDP-bound KRAS wild-type protein, 1:1 binding model; read-out: KRAS KD
# [2] = test system: human lung cancer strain NCI-H441;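 note: cell proliferation inhibition after four days measured by CellTiter-Glo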
# [3] = target: GDP-bound HRAS wild-type protein (Homo sapiens, UniProt P01112); assay: Binding to HRAS by surface plasmon resonance (SPR), Single Cycle Kinetics; conditions: SPR KD ratio HRAS/KRAS, class symbols
# [4] = target: GDP-bound NRAS wild-type protein (Homo sapiens, UniProt P01111); assay: Binding to NRAS by surface plasmon resonance (SPR), Single Cycle Kinetics; conditions: SPR KD ratio NRAS/KRAS, class symbols
# GDP-bound NRAS wild-type protein, sequence (P01111 whole entry): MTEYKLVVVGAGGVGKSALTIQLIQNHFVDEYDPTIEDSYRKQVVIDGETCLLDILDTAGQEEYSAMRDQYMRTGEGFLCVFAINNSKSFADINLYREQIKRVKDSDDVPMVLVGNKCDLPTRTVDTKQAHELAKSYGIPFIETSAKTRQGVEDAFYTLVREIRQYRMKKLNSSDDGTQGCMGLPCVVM
# GDP-bound HRAS wild-type protein, sequence (P01112 whole entry): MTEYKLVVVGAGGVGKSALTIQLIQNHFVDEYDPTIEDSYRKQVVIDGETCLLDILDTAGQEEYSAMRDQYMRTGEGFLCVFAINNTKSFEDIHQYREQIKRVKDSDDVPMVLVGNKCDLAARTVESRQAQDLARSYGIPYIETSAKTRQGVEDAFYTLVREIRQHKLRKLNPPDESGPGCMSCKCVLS
# GDP-bound KRAS wild-type protein, sequence (P01116 whole entry): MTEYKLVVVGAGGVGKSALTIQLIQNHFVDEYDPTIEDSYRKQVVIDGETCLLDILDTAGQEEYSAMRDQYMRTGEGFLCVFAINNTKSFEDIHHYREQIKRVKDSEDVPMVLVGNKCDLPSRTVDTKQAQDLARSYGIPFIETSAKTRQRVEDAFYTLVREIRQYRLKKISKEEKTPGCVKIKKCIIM
smiles,measurement,setting,value
CC[C@H](C)[C@@H]1NC(=O)[C@H](COC)N(C)C(=O)C[C@@H](C(=O)N2CCCCC2)N(C)C(=O)[C@H](C2CCCC2)N(C)C(=O)C2(CC(C)(C)C2)NC(=O)[C@@H]2C[C@@H](OC(C)C)CN2C(=O)[C@H](CCc2cc(F)c(C(F)(F)F)c(F)c2)NC(=O)CN(C)C(=O)[C@H](Cc2ccc(C)cc2)N2CC/C=C\C[C@@H](C2=O)N(C)C(=O)CN(C)C1=O [PP2669],Kd,[1],0.29 nM
same,IC50,[2],18.7 nM
same,HRAS/KRAS (ratio of KD value with respect to GDP-bound HRAS wild-type protein to KD value with respect to KRAS),[3],A (a compound having 10 or more and less than 20 is denoted as A)
same,NRAS/KRAS (ratio of KD value with respect to GDP-bound NRAS wild-type protein to KD value with respect to KRAS),[4],A (a compound having 10 or more and less than 20 is denoted as A)
CCO[C@@H]1C[C@H]2C(=O)NC3(CC(C)(C)C3)C(=O)N(C)[C@@H](C3CCCC3)C(=O)N(C)[C@H](C(=O)N3CCCCC3)CC(=O)N(C)[C@@H](COC)C(=O)N[C@@H]([C@@H](C)CC)C(=O)N(C)CC(=O)N(C)[C@H]3C/C=C\CCN(C3=O)[C@@H](Cc3ccc(C(F)(F)F)cc3)C(=O)N(C)CC(=O)N[C@@H](CCc3ccc(Cl)c(Cl)c3)C(=O)N2C1 [PP2670],Kd,[1],0.48 nM
same,IC50,[2],25.2 nM
same,HRAS/KRAS (ratio of KD value with respect to GDP-bound HRAS wild-type protein to KD value with respect to KRAS),[3],A (a compound having 10 or more and less than 20 is denoted as A)
same,NRAS/KRAS (ratio of KD value with respect to GDP-bound NRAS wild-type protein to KD value with respect to KRAS),[4],AA (a compound having 20 or more is denoted as AA)
CC[C@H](C)[C@@H]1NC(=O)[C@H](COC)N(C)C(=O)C[C@@H](C(=O)N2CCCCC2)N(C)C(=O)[C@H](C2CCCC2)N(C)C(=O)C2(CC(C)(C)C2)NC(=O)[C@@H]2C[C@@H](OC(C)C)CN2C(=O)[C@H](CCc2ccc(Cl)c(Cl)c2)NC(=O)CN(C)C(=O)[C@H](Cc2ccc(C(F)(F)F)cc2)N2CC/C=C\C[C@@H](C2=O)N(C)C(=O)CN(C)C1=O [PP2671],Kd,[1],0.67 nM
same,IC50,[2],26.3 nM
same,HRAS/KRAS (ratio of KD value with respect to GDP-bound HRAS wild-type protein to KD value with respect to KRAS),[3],A (a compound having 10 or more and less than 20 is denoted as A)
same,NRAS/KRAS (ratio of KD value with respect to GDP-bound NRAS wild-type protein to KD value with respect to KRAS),[4],A (a compound having 10 or more and less than 20 is denoted as A)
CCC[C@H]1C(=O)N[C@@H]([C@@H](C)CC)C(=O)N(C)CC(=O)N(C)[C@H]2C/C=C\CCN(C2=O)[C@@H](Cc2ccc(C)cc2)C(=O)N(C)CC(=O)N[C@@H](CCc2cc(F)c(C(F)(F)F)c(F)c2)C(=O)N2C[C@H](OCC)C[C@H]2C(=O)NC2(CC(C)(C)C2)C(=O)N(C)[C@@H](CC(C)(C)C)C(=O)N(C)[C@H](C(=O)N(C)C)CC(=O)N1C [PP2706],Kd,[1],0.076 nM
same,IC50,[2],2.3 nM
same,HRAS/KRAS (ratio of KD value with respect to GDP-bound HRAS wild-type protein to KD value with respect to KRAS),[3],B (a compound having 3 or more and less than 10 is denoted as B)
same,NRAS/KRAS (ratio of KD value with respect to GDP-bound NRAS wild-type protein to KD value with respect to KRAS),[4],A (a compound having 10 or more and less than 20 is denoted as A)
CCCOC[C@H]1C(=O)N[C@@H]([C@@H](C)CC)C(=O)N(C)CC(=O)N(C)[C@H]2C/C=C\CCN(C2=O)[C@@H](Cc2ccc(C)cc2)C(=O)N(C)CC(=O)N[C@@H](CCc2cc(F)c(C(F)(F)F)c(F)c2)C(=O)N2C[C@H](OCC)C[C@H]2C(=O)NC2(CC(C)(C)C2)C(=O)N(C)[C@@H](CC(C)(C)C)C(=O)N(C)[C@H](C(=O)N(C)C)CC(=O)N1C [PP2708],Kd,[1],0.072 nM
same,IC50,[2],5.1 nM
same,HRAS/KRAS (ratio of KD value with respect to GDP-bound HRAS wild-type protein to KD value with respect to KRAS),[3],A (a compound having 10 or more and less than 20 is denoted as A)
same,NRAS/KRAS (ratio of KD value with respect to GDP-bound NRAS wild-type protein to KD value with respect to KRAS),[4],A (a compound having 10 or more and less than 20 is denoted as A)
CCC[C@H]1C(=O)N[C@@H]([C@@H](C)CC)C(=O)N(C)CC(=O)N(C)[C@H]2C/C=C\CCN(C2=O)[C@@H](Cc2ccc(C)cc2)C(=O)N(C)CC(=O)N[C@@H](CCc2ccc(C(F)(F)F)c(OC)c2)C(=O)N2C[C@H](OCC)C[C@H]2C(=O)NC2(CC(C)(C)C2)C(=O)N(C)[C@@H](CC(C)(C)C)C(=O)N(C)[C@H](C(=O)N(C)C)CC(=O)N1C [PP2710],Kd,[1],0.1 nM
same,IC50,[2],5.3 nM
same,HRAS/KRAS (ratio of KD value with respect to GDP-bound HRAS wild-type protein to KD value with respect to KRAS),[3],B (a compound having 3 or more and less than 10 is denoted as B)
same,NRAS/KRAS (ratio of KD value with respect to GDP-bound NRAS wild-type protein to KD value with respect to KRAS),[4],B (a compound having 3 or more and less than 10 is denoted as B)
CCCOC[C@H]1C(=O)N[C@@H]([C@@H](C)CC)C(=O)N(C)CC(=O)N(C)[C@H]2C/C=C\CCN(C2=O)[C@@H](Cc2ccc(C)cc2)C(=O)N(C)CC(=O)N[C@@H](CCc2ccc(C(F)(F)F)c(OC)c2)C(=O)N2C[C@H](OCC)C[C@H]2C(=O)NC2(CC(C)(C)C2)C(=O)N(C)[C@@H](CC(C)(C)C)C(=O)N(C)[C@H](C(=O)N(C)C)CC(=O)N1C [PP2712],Kd,[1],0.11 nM
same,IC50,[2],6.3 nM
same,HRAS/KRAS (ratio of KD value with respect to GDP-bound HRAS wild-type protein to KD value with respect to KRAS),[3],B (a compound having 3 or more and less than 10 is denoted as B)
same,NRAS/KRAS (ratio of KD value with respect to GDP-bound NRAS wild-type protein to KD value with respect to KRAS),[4],A (a compound having 10 or more and less than 20 is denoted as A)
CCC[C@H]1C(=O)N[C@@H]([C@@H](C)CC)C(=O)N(C)CC(=O)N(C)[C@H]2C/C=C\CCN(C2=O)[C@@H](Cc2ccc(C)cc2)C(=O)N(C)CC(=O)N[C@@H](CCc2ccc(Cl)c(Cl)c2)C(=O)N2C[C@H](OCC)C[C@H]2C(=O)NC2(CC(C)(C)C2)C(=O)N(C)[C@@H](CC(C)(C)C)C(=O)N(C)[C@H](C(=O)N(C)C)CC(=O)N1C [PP2714],Kd,[1],0.25 nM
same,IC50,[2],13.2 nM
same,HRAS/KRAS (ratio of KD value with respect to GDP-bound HRAS wild-type protein to KD value with respect to KRAS),[3],A (a compound having 10 or more and less than 20 is denoted as A)
same,NRAS/KRAS (ratio of KD value with respect to GDP-bound NRAS wild-type protein to KD value with respect to KRAS),[4],A (a compound having 10 or more and less than 20 is denoted as A)
CCCOC[C@H]1C(=O)N[C@@H]([C@@H](C)CC)C(=O)N(C)CC(=O)N(C)[C@H]2C/C=C\CCN(C2=O)[C@@H](Cc2ccc(C)cc2)C(=O)N(C)CC(=O)N[C@@H](CCc2ccc(Cl)c(Cl)c2)C(=O)N2C[C@H](OCC)C[C@H]2C(=O)NC2(CC(C)(C)C2)C(=O)N(C)[C@@H](CC(C)(C)C)C(=O)N(C)[C@H](C(=O)N(C)C)CC(=O)N1C [PP2716],Kd,[1],0.34 nM
same,IC50,[2],13.8 nM
same,HRAS/KRAS (ratio of KD value with respect to GDP-bound HRAS wild-type protein to KD value with respect to KRAS),[3],A (a compound having 10 or more and less than 20 is denoted as A)
same,NRAS/KRAS (ratio of KD value with respect to GDP-bound NRAS wild-type protein to KD value with respect to KRAS),[4],A (a compound having 10 or more and less than 20 is denoted as A)
CCC[C@H]1C(=O)N[C@@H]([C@@H](C)CC)C(=O)N(C2CC2)CC(=O)N(C)[C@H]2C/C=C\CCN(C2=O)[C@@H](Cc2ccc(C)cc2)C(=O)N(C)CC(=O)N[C@@H](CCc2cc(F)c(C(F)(F)F)c(F)c2)C(=O)N2C[C@H](OCC)C[C@H]2C(=O)NC2(CC(C)(C)C2)C(=O)N(C)[C@@H](CC(C)(C)C)C(=O)N(C)[C@H](C(=O)N(C)C)CC(=O)N1C [PP2718],Kd,[1],0.33 nM
same,IC50,[2],7.6 nM
same,HRAS/KRAS (ratio of KD value with respect to GDP-bound HRAS wild-type protein to KD value with respect to KRAS),[3],A (a compound having 10 or more and less than 20 is denoted as A)
same,NRAS/KRAS (ratio of KD value with respect to GDP-bound NRAS wild-type protein to KD value with respect to KRAS),[4],A (a compound having 10 or more and less than 20 is denoted as A)
